Test results published in US10774074B2, “2-(1-heteroarylpiperazin-4-yl)methyl-1,4-benzodioxane derivatives as alpha2C antagonists” (ORION CORPORATION, priority 2015, dated 2020).
Where a name gives a salt, the structure may show the parent alone.

Legend:
[1] = molecular target: T1, human alpha2A receptors (Homo sapiens, UniProt P08913); assay: Determination of alpha2A antagonistic activity in vitro (FLIPR calcium assay, CHO cells); type: cell-based; conditions: for Kb: Kb calculated with the Cheng-Prusoff equation from IC50, adrenaline as agonist, CHO cells, human alpha2A, read-out: Alpha 2A Adrenaline Kb; for IC50: antagonism of adrenaline stimulation, CHO cells stably transfected with human alpha2A receptor and Gα16, intracellular calcium (FLIPR), read-out: Alpha 2A Adrenaline IC50
T1 construct: host or cells: CHO cells, cotransfected with pCEP-Gα16
T1 sequence (P08913 1-465): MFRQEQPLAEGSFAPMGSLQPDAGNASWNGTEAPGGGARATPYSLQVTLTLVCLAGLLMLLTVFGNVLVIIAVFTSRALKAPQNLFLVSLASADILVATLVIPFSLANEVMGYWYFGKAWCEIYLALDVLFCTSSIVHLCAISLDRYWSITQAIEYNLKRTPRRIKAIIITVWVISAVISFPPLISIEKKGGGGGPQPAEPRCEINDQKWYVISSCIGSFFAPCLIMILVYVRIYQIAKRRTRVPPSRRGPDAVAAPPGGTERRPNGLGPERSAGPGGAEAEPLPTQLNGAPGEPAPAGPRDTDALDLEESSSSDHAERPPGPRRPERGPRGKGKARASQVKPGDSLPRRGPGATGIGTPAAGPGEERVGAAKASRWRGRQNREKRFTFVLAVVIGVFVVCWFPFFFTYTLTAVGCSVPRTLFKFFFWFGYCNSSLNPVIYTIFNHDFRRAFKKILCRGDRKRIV
Procedure: (§1) EXPERIMENT 1: Determination of alpha2A and alpha2C Antagonistic Activity In Vitro
(§2) Chinese hamster ovary (CHO) cells stably transfected with human alpha2A or alpha2C receptors (University of Turku, Finland) were cotransfected with the expression vector pCEP-Gα16 (Molecular Devices, CA, USA) were used in this experiment. The cells were maintained at 37° C. in a 5% CO2/95% air atmosphere. The cells were cultured in HAM F-12 medium supplemented with 10% FCS, 25 mM HEPES, 100 IU/ml penicillin, 100 µg/ml streptomycin, 500 μg/ml geneticin and 240 μg/ml hygromycin B. The cells were subcultured twice weekly with 0.25% trypsin and 1 mM EDTA. The subculture ratio was 1:5-1:20. The growth medium was changed every 2 or 3 days. All cell culture reagents were from Gibco. The day before the experiment the cells were plated into black-walled, clear bottom 384-well plates at a density of 10,000 cells/well.
(§3) The growth medium was removed and the cells were incubated with the test compounds and the FLIPR Calcium 6 Assay reagent (Molecular Devices, CA, USA) for 2 h at 37° C. in dark. The test compounds (concentrations in cells 100 pM-10 μM) were dissolved in Probenecid-Ringer consisting of 150 mM NaCl, 3 mM KCl, 1.2 mM MgCl2, 1 mM CaCl2, 5 mM glucose, 20 mM HEPES and 2.5 mM probenecid (pH 7.4 adjusted with 1.0 M NaOH). The osmolarity was adjusted to 322 milliosmoles with Osmostat® OM-6020 osmometer (DIC Kyoto Daiichi Kagagu Co. Ltd, Japan). […] All experiments were performed at 37° C. For agonism measurements the test compounds dissolved in Probenecid-Ringer were applied by FLIPR Tetra at 15 s time point. In order to determine antagonism, the cells were stimulated either with 100 nM adrenaline or noradrenaline and the test compounds were added to the cells 2 h before the experiment with the FLIPR Calcium 6 Assay reagent. […] Typically, there were four replicates at each concentration and six different dose levels. For example, if the number of plates from which results were obtained was three, 72 (4*6*3) wells were thus measured to construct dose-response relationship. The samples were excited at 485 nm and emission was detected at 525 nm with a 515 nm cut-off filter. The minimum fluorescence value subtracted from the maximum value for each well was used in the calculations. ScreenWorks version 4.0 software was used for analyzing the results. Fitting of the antagonist dose-response results was performed with the free Hill equation and the IC50 values were fitted with IDBS XE software using model 200: y=(A+(B/(1+((x/C)^D)))), where A is the curve maximum, B the curve minimum and C equals the EC50 value. D is slope factor (Hill). Kb was calculated with the Cheng-Prusoff equation Kb=A/((B/C)+1), where A is the IC50 of antagonist, B the concentration of agonist and C the EC50 of the agonist.

[2] = molecular target: T2, human alpha2C receptors (Homo sapiens, UniProt P18825); assay: Determination of alpha2C antagonistic activity in vitro (FLIPR calcium assay, CHO cells); type: cell-based; conditions: for Kb: Kb calculated with the Cheng-Prusoff equation from IC50, adrenaline as agonist, CHO cells, human alpha2C, read-out: Alpha 2C Adrenaline Kb; for IC50: antagonism of adrenaline stimulation, CHO cells stably transfected with human alpha2C receptor and Gα16, intracellular calcium (FLIPR), read-out: Alpha 2C Adrenaline IC50
T2 construct: host or cells: CHO cells, cotransfected with pCEP-Gα16
T2 sequence (P18825 1-462): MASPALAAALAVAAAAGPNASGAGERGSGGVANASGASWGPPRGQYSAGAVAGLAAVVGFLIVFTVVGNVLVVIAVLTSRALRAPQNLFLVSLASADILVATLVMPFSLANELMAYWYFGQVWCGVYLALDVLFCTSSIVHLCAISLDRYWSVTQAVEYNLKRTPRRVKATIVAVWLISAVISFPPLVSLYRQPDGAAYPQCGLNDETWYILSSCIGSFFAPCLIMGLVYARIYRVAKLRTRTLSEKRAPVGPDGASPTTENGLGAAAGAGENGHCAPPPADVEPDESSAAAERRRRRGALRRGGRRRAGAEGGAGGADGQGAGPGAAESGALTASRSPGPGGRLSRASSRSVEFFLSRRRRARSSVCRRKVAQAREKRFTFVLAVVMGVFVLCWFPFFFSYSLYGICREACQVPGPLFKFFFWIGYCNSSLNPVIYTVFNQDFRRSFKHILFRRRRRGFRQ
Procedure: as §1, §2, §3

Row | Compound | Kb [1] [nM] | IC50 [1] [nM] | Kb [2] [nM] | IC50 [2] [nM]
1 | Cc1cccc(-n2nc(C)cc2N2CCN(C[C@H]3COc4ccccc4O3)CC2)n1 [Compound of example 40, (S)-1-((2,3-Dihydrobenzo[b][1,4]dioxin-2-yl)methyl)-4-(3-methyl-1-(6-methylpyridin-2-yl)-1H-pyrazol-5-yl)piperazine] | 100 | 2230 | 2.57 | 0.26
2 | Cc1c(N2CCCC2=O)c(N2CCN(C[C@H]3COc4ccccc4O3)CC2)nn1C [Compound of example 14, (S)-1-(3-(4-((2,3-Dihydrobenzo[b][1,4]dioxin-2-yl)methyl)piperazin-1-yl)-1,5-dimethyl-1H-pyrazol-4-yl)pyrrolidin-2-one] | 382 | 8520 | 0.29 | 0.03
3 | COCc1scnc1N1CCN(C[C@H]2COc3ccccc3O2)CC1 [Compound of example 8, (S)-4-(4-((2,3-Dihydrobenzo[b][1,4]dioxin-2-yl)methyl)piperazin-1-yl)-5-(methoxymethyl)thiazole] | 88 | 1970 | < 0.1 | < 0.01
4 | (S)-4-(4-((2,3-Dihydrobenzo[b][1,4]dioxin-2-yl)methyl)piperazin-1-yl)-N-(pyridin-4-yl)-1,2,5-thiadiazol-3-amine dihydrochloride [Compound of example 35] | 275 | 6130 |  | 
5 | Cc1c(N2CCN(C)C2=O)c(N2CCN(C[C@H]3COc4ccccc4O3)CC2)nn1C [Compound of example 15, (S)-1-(3-(4-((2,3-Dihydrobenzo[b][1,4]dioxin-2-yl)methyl)piperazin-1-yl)-1,5-dimethyl-1H-pyrazol-4-yl)-3-methylimidazolidin-2-one] | > 449 | > 10000 | 1.64 | 0.17
6 | Cc1cc(N2CCN(C[C@H]3COc4ccccc4O3)CC2)n(-c2ccccn2)n1 [Compound of example 38, (S)-1-((2,3-Dihydrobenzo[b][1,4]dioxin-2-yl)methyl)-4-(3-methyl-1-(pyridin-2-yl)-1H-pyrazol-5-yl)piperazine] | 149 | 3320 | 2.28 | 0.23
7 | Cc1nc(N2CCN(C[C@H]3COc4ccccc4O3)CC2)c(N2C(=O)CC(C)(C)C2=O)s1 [Compound of example 32, (S)-1-(4-(4-((2,3-Dihydrobenzo[b][1,4]dioxin-2-yl)methyl)piperazin-1-yl)-2-methylthiazol-5-yl)-3,3-dimethylpyrrolidine-2,5-dione hydrochloride] |  |  | < 0.1 | < 0.01
8 | Cc1c(N2CCC2=O)c(N2CCN(C[C@H]3COc4ccccc4O3)CC2)nn1C [Compound of example 4, (S)-1-(3-(4-((2,3-Dihydrobenzo[b][1,4]dioxin-2-yl)methyl)piperazin-1-yl)-1,5-dimethyl-1H-pyrazol-4-yl)azetidin-2-one] | 217 |  | 0.13 | 0.01
9 | CNC(=O)c1nsnc1N1CCN(C[C@H]2COc3ccccc3O2)CC1 [Compound of example 29, (S)-4-(4-((2,3-Dihydrobenzo[b][1,4]dioxin-2-yl)methyl)piperazin-1-yl)-N-methyl-1,2,5-thiadiazole-3-carboxamide hydrochloride] | > 449 | > 10000 | 4210 | 424

The next lines start with the values.

Row | Kb [1] [nM] | IC50 [1] [nM] | Kb [2] [nM] | IC50 [2] [nM] | Compound
10 | 43 | 960 | 2.93 | 0.3 | Cc1c(C(C)(C)O)c(N2CCN(C[C@H]3COc4ccccc4O3)CC2)nn1C [Compound of example 13, (S)-2-(3-(4-((2,3-Dihydrobenzo[b][1,4]dioxin-2-yl)methyl)piperazin-1-yl)-1,5-dimethyl-1H-pyrazol-4-yl)propan-2-ol]
11 | 405 | 9020 | 0.394 | 0.04 | O=C1CCCN1c1ncsc1N1CCN(C[C@H]2COc3ccccc3O2)CC1 [Compound of example 20, (S)-1-(5-(4-((2,3-Dihydrobenzo[b][1,4]dioxin-2-yl)methyl)piperazin-1-yl)thiazol-4-yl)pyrrolidin-2-one]
12 | > 449 | > 10000 | 1350 | 136 | COCc1nc(N2CCN(C[C@H]3COc4ccccc4O3)CC2)no1 [Compound of example 23, (S)-3-(4-((2,3-Dihydrobenzo[b][1,4]dioxin-2-yl)methyl)piperazin-1-yl)-5-(methoxymethyl)-1,2,4-oxadiazole]
13 | 82 | 1830 | 0.29 | 0.03 | COc1cccc(-n2nc(C)cc2N2CCN(C[C@H]3COc4ccccc4O3)CC2)n1 [Compound of example 39, (S)-1-((2,3-Dihydrobenzo[b][1,4]dioxin-2-yl)methyl)-4-(1-(6-methoxypyridin-2-yl)-3-methyl-1H-pyrazol-5-yl)piperazine]
14 | > 449 | > 10000 | 912 | 91.9 | Cc1nc(C#N)c(N2CCN(C[C@H]3COc4ccccc4O3)CC2)o1 [Compound of example 3, (S)-5-(4-((2,3-Dihydrobenzo[b][1,4]dioxin-2-yl)methyl)piperazin-1-yl)-2-methyloxazole-4-carbonitrile]
15 |  |  | < 0.1 | < 0.01 | Cc1c(N2CC(C)(C)N(C)C2=O)c(N2CCN(C[C@H]3COc4ccccc4O3)CC2)nn1C [Compound of example 7, (S)-1-(3-(4-((2,3-Dihydrobenzo[b][1,4]dioxin-2-yl)methyl)piperazin-1-yl)-1,5-dimethyl-1H-pyrazol-4-yl)-3,4,4-trimethylimidazolidin-2-one]
16 |  |  | < 0.1 | < 0.01 | Cc1c(N2CC(C)(C)NC2=O)c(N2CCN(C[C@H]3COc4ccccc4O3)CC2)nn1C [Compound of example 6, (S)-1-(3-(4-((2,3-Dihydrobenzo[b][1,4]dioxin-2-yl)methyl)piperazin-1-yl)-1,5-dimethyl-1H-pyrazol-4-yl)-4,4-dimethylimidazolidin-2-one]
17 |  |  | < 0.1 | < 0.01 | Cc1c(N2C(=O)CC(C)(C)C2=O)c(N2CCN(C[C@H]3COc4ccccc4O3)CC2)nn1C [Compound of example 1, (S)-1-(3-(4-((2,3-Dihydrobenzo[b][1,4]dioxin-2-yl)methyl)piperazin-1-yl)-1,5-dimethyl-1H-pyrazol-4-yl)-3,3-dimethylpyrrolidine-2,5-dione]
